What was measured:
[1] = system: DIO C57BL/6 mice; experiment: Physical endurance (swimming test) in DIO C57BL/6 mice; assay type: in vivo; details: single administration, 3 hours later, vs control group
Protocol: This Example was intended to measure difference in physical endurance of mice through a swimming test. For this purpose, water was placed in a cylindrical trough having a diameter of 9.5 cm and height of 25 cm, and β-lapachone was administered to DIO C57BL/6 mice. 3 hours later, a sample-administered group and a control group were placed simultaneously into each cylindrical trough for measurement, and physical endurance of each group was compared.

[2] = system: diet-induced obesity (DIO) C57BL/6 mice; experiment: Body weight, dietary intake, fat, blood parameters and histology in diet-induced obesity (DIO) C57BL/6 mice; assay type: in vivo
Text: FIGS. 16A through 16C show whole laparotomized states of animals after administration of β-lapachone to DIO C57BL/6 mice for 56 days and results of oil red O staining and EM examination on fat accumulation in liver tissues. […] In order to confirm improvement in condition of fatty liver in FIG. 16, accumulated fat in the liver was stained using oil red O staining and as a result, it was confirmed that fat has diminished by 90% or more, as compared to a control group.
Referring to FIG. 17, after daily administration of β-lapachone to DIO C57BL/6 mice at a dose of 50 mg/kg via an oral route, animals were laparotomized on day 56 of β-lapachone administration and perilipin staining was performed on gonadal adipose tissues.
Referring to FIG. 19, after daily administration of β-lapachone to DIO C57BL/6 mice at a dose of 50 mg/kg via an oral route, H&E staining of brown adipose tissues was performed on day 56 of administration.

[3] = system: AMPK; experiment: Activation of AMPK in liver and gonadal adipose tissues of C57BL/6 mice; assay type: in vivo; details: 5 mg/kg via tail veins, 2 hours and 4 hours
Protocol: A vehicle and 5 mg/kg of β-lapachone were administered via tail veins to C57BL/6 mice for 2 hours and 4 hours, respectively. Liver and gonadal adipose tissues were removed and activity of AMPK kinase was assayed. A degree of activation was expressed as a CPM value of radioisotopes. Using the same manner, HepG2 cells, a cell line derived from human liver, were treated with 10 μM β-lapachone for 30 min, and then an assay for AMPK kinase activity was carried out.

[4] = system: C57BL/6JL Lep ob/Lep ob mice; experiment: Weight loss effects in obese mice (ob/ob): body weight; assay type: in vivo; details: 100 mg/kg for 26 days
Text: 10-week-old C57BL/6JL Lep ob/Lep ob male mice having obesity characteristics and predisposition were purchased from Daehan Biolink Co., Ltd. (Chungchongbuk-do, Korea). Animals were raised in a breeding room maintained at a temperature of 23 C, 55% humidity, illumination of 300 to 500 lux, a 12-h light/dark (L/D) cycle, and ventilation of 10 to 18 times/hr. Animals were fed ad libitum pellets of Purina Rodent Laboratory Chow 5001 (purchased from Purina Mills Inc., St. Louis, Mo., USA) as a solid feed for experimental animals and tap water as drinking water. Mice were allowed to acclimate to new environment of the breeding room for two weeks and were then administered some pyrano-o-naphthoquinone and furano-o-naphthoquinone derivatives synthesized according to the present invention at doses of 100 mg/kg for 26 days. Observation was made on changes in body weight, blood glucose and dietary intake, with respect to a time course of administration. After administration was complete, Computed Tomography (CT) was performed to confirm changes in adipose tissue distribution of animals, changes in fat distribution of tissues in various organs, changes in sizes of adipocytes, and changes in glucose, lipid and enzyme levels in blood and liver.

[5] = system: transcripts of Sirtuin (SIRT) genes; experiment: Expression of SIRT-related transcripts in DIO mice; assay type: in vivo, C57BL/6 mice; details: 50 mg/kg daily oral, gonadal adipose tissues, days 7, 28 and 56
Protocol: β-lapachone was administered daily to diet-induced obesity (DIO) mice at a dose of 50 mg/kg via an oral route, and levels of transcripts of Sirtuin (SIRT) (36,37) genes in gonadal adipose tissues were measured on days 7, 28 and 56 of administration, respectively, using real-time quantitative PCR. Referring to SIRT-related transcripts shown in FIG. 12, there are known 7 species of transcripts in humans.

[6] = system: AMPK; experiment: Determination of AMPK activation in C2C12 myoblast cells (SAMS peptide, [γ-32P]ATP); assay type: cell-based; details: differentiated C2C12 myoblast cells, 5 μg/ml, compared with control (DMSO 0.5% = 1)
Protocol: Myoblast cells, C2C12, were cultured in DMEM containing 10% bovine calf serum. When a cell density reached a range of about 85% to 90%, the culture medium was replaced with a medium containing 1% bovine calf serum to induce differentiation of cells. The thus-differentiated myoblast cells were treated with samples synthesized in Examples 1 through 29 at a concentration of 5 μg/ml, and compared with a control group. Enzymatic activity of AMPK was determined as follows. Firstly, C2C12 cells were lysed to obtain protein extracts and then ammonium sulfate was added to a final concentration of 30%, thereby precipitating proteins. Protein precipitates were dissolved in a buffer (62.5 mM Hepes, pH 7.2, 62.5 mM NaCl, 62.5 mM NaF, 1.25 mM Na pyrophosphate, 1.25 mM EDTA, 1 mM DTT, 0.1 mM PMSF, and 200 μM AMP). Thereafter, 200 μM SAMS peptide (HMRSAMSGLHLVKRR: the underlined serine residue is a phosphorylation site, as an AMPK phosphorylation site of acetyl-CoA carboxylase) and [γ-32P]ATP were added thereto and reactants were reacted for 10 minutes at 30° C. This was followed by spotting of the resulting reaction solution on p81 phosphocellulose paper. The p81 paper was washed with a 3% phosphoric acid solution and radioactivity thereof was measured. For each reaction condition, reactions involving no SAMS peptide were also conducted and basic values were subtracted from the thus-observed values.

[7] = system: Sprague-Dawley rats; experiment: Acute toxicity test, oral administration; assay type: in vivo; details: oral, 50, 100 and 200 mg/kg, observed for 2 weeks
[8] = DIO C57BL/6 mice, 56 days, vs control group
[9] = DIO mice, 50 mg/kg daily oral, day 56
[10] = DIO mice, 50 mg/kg daily oral, days 3, 7, 14, 28 and 56

## CC1(C)CCC2=C(O1)c1ccccc1C(=O)C2=O [Compound 1, β-Lapachone]
[1]
  swimming duration: more than two-fold swimming duration
[2]; DIO C57BL/6 mice, 56 days
  visceral fat and body weight (laparotomized state): conspicuous decreases in visceral fat and body weight
[2]; [8]
  EM examination on liver tissues: fat vacuoles and glycogen stores: remarkably decreased fat vacuoles and glycogen stores
  EM examination on liver tissues: mitochondrial numbers: significant increases in mitochondrial numbers
  decrease of accumulated fat in the liver (oil red O staining): ≥ 90%
  weight changes in various organs: significant changes in weight of tissues
[2]; DIO mice on high-fat diet, 50 mg/kg daily oral, 56 days, vs control group
  body weight: continuous weight loss for 56 days
[2]; DIO mice, 50 mg/kg daily oral, 56 days
  dietary intake: decreases in dietary intake for first two weeks
[2]; [9]
  size of adipocytes in brown adipose tissue (EM examination): remarkably decreased
  size of adipocytes in brown adipose tissues (H&E staining): remarkably decreased
  size of adipocytes in gonadal adipose tissues (perilipin staining): remarkably decreased
[2]; [10]
  blood fat and glucose levels: significantly improved
  blood level of resistin: significantly improved
  insulin resistance and leptin resistance: also improved
[3]
  AMPK activity in the liver and gonadal adipose tissues: increased AMPK activity
[4]
  Final BW: 46.5 g
[4]; Mus musculus, 624 h, read-out: Increase in BW
  change in vivo at 100 mg/kg: -16.8%
[5]
  SIRT2 transcript level: did not exhibit any noticeable difference
  SIRT3 transcript level: significantly increased
  SIRT5 transcript level: did not exhibit any noticeable difference
  SIRT6 transcript level: significantly increased
  SIRT7 transcript level: did not exhibit any noticeable difference
  SITR1 transcript level: significantly increased
[6]
  AMPK fold: 2.2 fold
[7]
  mortality: none of the animals died
